One experiment has as its target T1, Neutrophil elastase (Homo sapiens, UniProt P08246).
T1 sequence (P08246 whole entry): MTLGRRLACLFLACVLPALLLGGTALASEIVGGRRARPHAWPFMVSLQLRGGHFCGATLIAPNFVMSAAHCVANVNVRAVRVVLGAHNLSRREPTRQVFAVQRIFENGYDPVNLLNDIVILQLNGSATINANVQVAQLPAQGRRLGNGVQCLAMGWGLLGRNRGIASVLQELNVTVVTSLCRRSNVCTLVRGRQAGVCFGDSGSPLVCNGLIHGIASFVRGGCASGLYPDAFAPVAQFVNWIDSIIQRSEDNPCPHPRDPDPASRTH
Nature of the experiment: In vitro inhibitory activity against human leukocyte elastase.

The subject of the next experiment is Cricetinae gen. sp. Description: Effective dose required to inhibit elastase induced pulmonary hemorrhage (EPH) lung model in hamsters. Type of experiment: functional, Cricetulus griseus.

pIC50: −log10 of the molar value. Several values for one entry are separate records, joined by “and”; a condition that tells them apart may be missing. Identical values can stand only once.

Consider five compounds from ChEMBL document CHEMBL1151492, “elastase inhibitors containing conformationally restricted lactams as P3-P2 dipeptide replacements” (Bioorg Med Chem Lett, 1993).

What is called pIC50 is −log10 of the IC50, conventionally taken in molar units. As for `CC(C)C(NC(=O)CN1CCCC[C@H](NC(=O)c2ccc(C(=O)NS(=O)(=O)c3ccc(Cl)cc3)cc2)C1=O)C(=O)C(F)(F)F` (stereo not given in full), the pIC50 at Neutrophil elastase is below 5.30.
On the same count and under the same terms, as for `CC(C)C(NC(=O)CN1CCC[C@H](NC(=O)c2ccc(C(=O)NS(=O)(=O)c3ccc(Cl)cc3)cc2)C1=O)C(=O)C(F)(F)F` (stereo not given in full), the figure is below 5.30.
As to `CC(C)C(NC(=O)CN(C(=O)[C@@H](NC(=O)c1ccc(C(=O)NS(=O)(=O)c2ccc(Cl)cc2)cc1)C(C)C)C1Cc2ccccc2C1)C(=O)C(F)(F)F` (stereo not given in full), the ED50 in the experiment on Cricetinae gen. sp. stood at 4.8 µM.
As for `CC(C)C(NC(=O)CN1C(=O)[C@@H](NC(=O)c2ccc(C(=O)NS(=O)(=O)c3ccc(Cl)cc3)cc2)C[S+]([O-])c2ccccc21)C(=O)C(F)(F)F` (stereo not given in full), at Neutrophil elastase, the pIC50 is 5.17 and 5.21.
As for `CC(C)C(NC(=O)CN1CC[C@H](NC(=O)c2ccc(C(=O)NS(=O)(=O)c3ccc(Cl)cc3)cc2)C1=O)C(=O)C(F)(F)F` (stereo not given in full), the pIC50 on Neutrophil elastase is below 5.30.
